From ChEMBL document CHEMBL1131812, “Novel conformationally restricted tetracyclic analogs of delta8-tetrahydrocannabinol” (Bioorg Med Chem Lett, 1999)

Key:
Cannabinoid receptor 1 = Cannabinoid receptor 1 (Rattus norvegicus, UniProt P20272); assay: Binding affinity towards cannabinoid receptor 1 in rat forebrain membranes.; assay type: cell membranes
Cannabinoid receptor 2 = Cannabinoid receptor 2 (Mus musculus, UniProt P47936); assay: Binding affinity towards Cannabinoid receptor 2 in mouse spleen membranes; assay type: cell membranes
Cannabinoid receptor 2, sequence (P47936 whole entry): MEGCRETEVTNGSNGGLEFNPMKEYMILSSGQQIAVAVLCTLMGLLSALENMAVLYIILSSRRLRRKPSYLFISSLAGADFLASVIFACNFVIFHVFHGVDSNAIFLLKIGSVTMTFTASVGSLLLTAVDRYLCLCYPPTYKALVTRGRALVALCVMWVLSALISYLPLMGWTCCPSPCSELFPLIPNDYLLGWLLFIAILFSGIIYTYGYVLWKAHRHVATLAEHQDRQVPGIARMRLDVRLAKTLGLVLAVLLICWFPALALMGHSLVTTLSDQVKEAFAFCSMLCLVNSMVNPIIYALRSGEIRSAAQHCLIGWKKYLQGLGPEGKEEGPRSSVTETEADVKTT

Cannabinoid receptor 1, sequence (P20272 whole entry): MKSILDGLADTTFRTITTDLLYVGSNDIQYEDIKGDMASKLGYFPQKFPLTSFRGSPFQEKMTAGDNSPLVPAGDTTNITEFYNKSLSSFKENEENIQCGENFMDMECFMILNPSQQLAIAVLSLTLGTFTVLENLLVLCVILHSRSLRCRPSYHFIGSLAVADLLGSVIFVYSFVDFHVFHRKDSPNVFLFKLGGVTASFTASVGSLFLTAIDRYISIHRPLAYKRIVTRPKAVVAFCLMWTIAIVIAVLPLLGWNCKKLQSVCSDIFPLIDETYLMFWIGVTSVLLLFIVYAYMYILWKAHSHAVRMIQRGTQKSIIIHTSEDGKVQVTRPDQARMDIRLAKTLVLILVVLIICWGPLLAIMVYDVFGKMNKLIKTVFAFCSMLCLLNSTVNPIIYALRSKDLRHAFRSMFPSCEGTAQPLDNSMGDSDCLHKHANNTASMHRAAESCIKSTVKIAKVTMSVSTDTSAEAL

Row | Compound | Ki (Cannabinoid receptor 1) [nM] | Ki (Cannabinoid receptor 2) [nM]
1 | CCCCCCC1CCCc2c1cc1c(c2O)[C@@H]2CC(C)=CC[C@H]2C(C)(C)O1 (stereo partly drawn) | 22.3 | 58.6
2 | CCCCCC1CCc2c(cc3c(c2O)[C@@H]2CC(C)=CC[C@H]2C(C)(C)O3)C1 (stereo partly drawn) | 402 | 162
3 | CCCCCCC1CCCc2c1cc(O)c1c2OC(C)(C)[C@@H]2CC=C(C)C[C@@H]12 (stereo partly drawn) | 542 | 456
4 | CCCCCCCc1cc(O)c2c(c1)OC(C)(C)[C@@H]1CC=C(C)C[C@@H]21 | 0.43 | 0.39
